# Where “and” joins values, the source holds several entries; their conditions need not be identical. Equal entries are not always repeated. Inconclusive results and toxic doses are left out.
# System: P388 leukemia ip, CD2F1 mice, survival T/C
# Experiment: NCI In Vivo Anticancer Drug Screen. Data for tumor model P388 Leukemia (intraperitoneal) in CD2F1 (CDF1) mice
# Settings: endpoint: median survival time, higher = longer survival
# Method in brief: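 Mice carrying the transplanted tumor received test compound or vehicle. Survival was recorded in each group, and the value is the treated-group measurement divided by that of the vehicle-treated control group.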
# [1] = dose: 50.0 mg/kg/injection, schedule: Q01DX005 (ip), vehicle: Klucel (hydroxypropylcellulose) (HPC)
# [2] = dose: 100.0 mg/kg/injection, schedule: Q01DX005 (ip), vehicle: Klucel (hydroxypropylcellulose) (HPC)
# [3] = dose: 200.0 mg/kg/injection, schedule: Q01DX005 (ip), vehicle: Klucel (hydroxypropylcellulose) (HPC)
# [4] = dose: 60.0 mg/kg/injection, schedule: Q01DX005 (ip), vehicle: saline with Tween-80
# [5] = dose: 50.0 mg/kg/injection, schedule: Q01DX009 (ip), vehicle: saline with Tween-80
# [6] = dose: 25.0 mg/kg/injection, schedule: Q01DX009 (ip), vehicle: saline
# [7] = dose: 50.0 mg/kg/injection, schedule: Q01DX009 (ip), vehicle: saline
compound,measurement,setting,value
O=C1Cc2ccccc2N1C(=O)c1ccc(Br)cc1,T/C,"dose: 100.0 mg/kg/injection, schedule: Q01DX001 (ip), vehicle: Klucel (hydroxypropylcellulose) (HPC)",94 % of control
same,T/C,"dose: 200.0 mg/kg/injection, schedule: Q01DX001 (ip), vehicle: Klucel (hydroxypropylcellulose) (HPC)",90 % of control
COc1ccc2c(c1)C(O)C(CO)C(C(=O)O)C2 (configuration not stated),T/C,[1],106 % of control
same,T/C,[2],101 % of control
same,T/C,[3],101 % of control
COc1ccc(-c2cnnc3c(-c4cccc(C(F)(F)F)c4)cnn23)cc1,T/C,[1],98 % of control
same,T/C,[2],93 % of control
same,T/C,[3],89 % of control
COC(=O)c1cccc2c([N+](=O)[O-])c(NC(C)=O)cc(C(=O)OC)c12,T/C,[4],100 % of control
same,T/C,"dose: 120.0 mg/kg/injection, schedule: Q01DX005 (ip), vehicle: saline with Tween-80",104 % of control
same,T/C,"dose: 240.0 mg/kg/injection, schedule: Q01DX005 (ip), vehicle: saline with Tween-80",100 % of control
Cc1cc(C(=O)O)nn1-c1ccc(S(=O)(=O)N2CCC(=O)N(C3CCCCC3)C2=S)cc1,T/C,"dose: 50.0 mg/kg/injection, schedule: Q01DX005 (ip), vehicle: saline with Tween-80",95 % of control
same,T/C,"dose: 100.0 mg/kg/injection, schedule: Q01DX005 (ip), vehicle: saline with Tween-80",101 % of control
same,T/C,"dose: 200.0 mg/kg/injection, schedule: Q01DX005 (ip), vehicle: saline with Tween-80",101 % of control
O=C1Cc2ccccc2NC(c2ccccc2)C1S(=O)(=O)c1ccccc1 (configuration not stated),T/C,[1],102 % of control
same,T/C,[2],102 % of control
same,T/C,[3],101 % of control
O=C1CCC(=O)N2c3ccccc3-c3ccccc3N12,T/C,[5],95 % of control
same,T/C,"dose: 100.0 mg/kg/injection, schedule: Q01DX009 (ip), vehicle: saline with Tween-80",93 % of control
same,T/C,"dose: 200.0 mg/kg/injection, schedule: Q01DX009 (ip), vehicle: saline with Tween-80",93 % of control
S=CN1CCCCC1,T/C,"dose: 15.0 mg/kg/injection, schedule: Q01DX005 (ip), vehicle: saline with Tween-80",98 % of control
same,T/C,"dose: 30.0 mg/kg/injection, schedule: Q01DX005 (ip), vehicle: saline with Tween-80",106 % of control
same,T/C,[4],106 % of control
CCCCc1ccc(C(N)=O)nc1,T/C,[1],104 % of control
same,T/C,[2],99 % of control
C=C1CC2(CCC23CC(=C)C(=O)O3)OC1=O (configuration not stated),T/C,"dose: 5.0 mg/kg/injection, schedule: Q01DX009 (ip), vehicle: Klucel (hydroxypropylcellulose) (HPC)",100 % of control
same,T/C,"dose: 10.0 mg/kg/injection, schedule: Q01DX009 (ip), vehicle: Klucel (hydroxypropylcellulose) (HPC)",116 % of control
same,T/C,"dose: 20.0 mg/kg/injection, schedule: Q01DX009 (ip), vehicle: Klucel (hydroxypropylcellulose) (HPC)",117 % of control
Cc1oc2ccccc2c(=O)c1CN1CCN(C)CC1,T/C,"dose: 60.0 mg/kg/injection, schedule: Q01DX005 (ip), vehicle: saline",101 % of control
same,T/C,"dose: 120.0 mg/kg/injection, schedule: Q01DX005 (ip), vehicle: saline",103 % of control
COc1cc(C(=O)OC2c3ccccc3CCC2N(C)C)cc(OC)c1OC (configuration not stated),T/C,"dose: 25.0 mg/kg/injection, schedule: Q01DX009 (ip), vehicle: saline with Tween-80",98 % of control
same,T/C,[5],91 % of control
CCCCCCCCC[N+]1([O-])CCCCCC1,T/C,"dose: 12.5 mg/kg/injection, schedule: Q01DX009 (ip), vehicle: saline",100 % of control
same,T/C,[6],99 % of control
same,T/C,[7],105 % of control and 107 % of control
CN(C)CCC(=O)c1cccc(O)c1,T/C,[6],107 % of control
same,T/C,[7],98 % of control and 105 % of control
same,T/C,"dose: 100.0 mg/kg/injection, schedule: Q01DX009 (ip), vehicle: saline",98 % of control and 109 % of control
same,T/C,"dose: 200.0 mg/kg/injection, schedule: Q01DX009 (ip), vehicle: saline",97 % of control
O=C1CSC(c2ccc(O)c(O)c2)N1c1nncs1 (configuration not stated),T/C,"dose: 25.0 mg/kg/injection, schedule: Q04DX002 (ip), vehicle: saline with Tween-80",96 % of control
same,T/C,"dose: 50.0 mg/kg/injection, schedule: Q04DX002 (ip), vehicle: saline with Tween-80",100 % of control
same,T/C,"dose: 100.0 mg/kg/injection, schedule: Q04DX002 (ip), vehicle: saline with Tween-80",98 % of control
